Data on 22 compounds can be found in ChEMBL document CHEMBL1134879, “3D-QSAR studies on 4-hydroxyphenylpyruvate dioxygenase inhibitors by comparative molecular field analysis (CoMFA)” (Bioorg Med Chem Lett, 2002).

Structures are written as SMILES.

Test [1] addresses T1, 4-hydroxyphenylpyruvate dioxygenase (Sus scrofa, UniProt Q02110). Nature of the test: Concentration required to achieve 50% inhibition against 4-Hydroxyphenylpyruvate dioxygenase (HPPD) from pig liver; (observed value).
For test [2], the target named is T1, 4-hydroxyphenylpyruvate dioxygenase. In words: Concentration required to achieve 50% inhibition against 4-Hydroxyphenylpyruvate dioxygenase (HPPD) from pig liver.
The target is the same in test [3]. In words: Concentration required to achieve 50% inhibition against 4-hydroxyphenylpyruvate dioxygenase from pig liver; (observed value).
The target is the same in test [4]. Nature of the test: Concentration required to achieve 50% inhibition against 4-hydroxyphenylpyruvate dioxygenase from pig liver.

T1 sequence (Q02110 whole entry): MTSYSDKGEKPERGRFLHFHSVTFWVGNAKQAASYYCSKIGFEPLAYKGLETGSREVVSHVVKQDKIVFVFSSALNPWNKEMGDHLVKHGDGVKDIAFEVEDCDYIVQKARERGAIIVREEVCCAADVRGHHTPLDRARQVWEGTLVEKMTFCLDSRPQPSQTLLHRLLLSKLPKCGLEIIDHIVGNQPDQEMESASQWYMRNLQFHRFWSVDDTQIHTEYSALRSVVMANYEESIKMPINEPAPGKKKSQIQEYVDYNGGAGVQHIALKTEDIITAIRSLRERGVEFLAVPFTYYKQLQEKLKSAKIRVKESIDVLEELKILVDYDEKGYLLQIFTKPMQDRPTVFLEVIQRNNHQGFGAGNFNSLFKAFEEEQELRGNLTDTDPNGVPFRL

The term IC50 denotes the point on the concentration scale where inhibition reaches its midpoint. Consider `O=C1CCCC(=O)C1=C(O)c1ccccc1`, for which the IC50 in test [1] and in test [2] was 11200 nM throughout. Consider `O=C1CCCC(=O)C1=C(O)c1ccccc1C(F)(F)F`, for which the IC50 was 251 nM in test [1] and 250 nM in test [2]. On to `CCC(=O)C1=C(O)CCCC1=O`, for which the IC50 in test [3] and in test [4] was 17800 nM each time. Turning to `O=C1CCCC(O)=C1C(=O)C1CC1`, the IC50 in test [3] was 6030 nM; in test [4] it was 6000 nM.

As to `COC1=CC(=O)C(OC(=O)C2CC2)=CC1=O`, the half-inhibitory concentration (IC50) in test [1] was 30200 nM; in test [2], 30000 nM. The like results for `O=C1CCCC(=O)C1=C(O)c1ccccc1Br` were, in that order, 562 nM and 560 nM.

With `O=C1CCCC(OC(=O)C2CC2)=C1Br`, the IC50 in test [1] is 30.2 nM; in test [2], 30 nM. As for `Cc1ccccc1C(O)=C1C(=O)CCCC1=O`, the half-maximal inhibitory concentration (IC50) in test [1] was 3720 nM; in test [2] it was 3750 nM.

Compound `CS(=O)(=O)c1ccc(C(O)=C2C(=O)CCCC2=O)c(Cl)c1` displayed an IC50 in test [2] of 50 nM. Consider `CCOC(=O)C1CC(=O)C=C(OC(=O)C2CC2)C1` (stereo not drawn), for which the IC50 in test [1] was 89.1 nM; in test [2], 90 nM. As to `O=C(Oc1cc(=O)oc2ccccc12)C1CC1`, the IC50 in test [1] and in test [2] was 110 nM in each case. As to `CC1(C)CC(=O)C=C(OC(=O)C2CC2)C1`, the IC50 is 331 nM in test [1] and 330 nM in test [2]. `CC(=O)C1=C(O)CCCC1=O`: the concentration for half-maximal inhibition (IC50) in test [3] and in test [4] was 11200 nM each time. With `CCOC(=O)C1CC(=O)C(C(=O)C2CC2)=C(OC(=O)C2CC2)C1` (stereo not drawn), the half-inhibitory concentration (IC50) is 39.8 nM in test [1] and 40 nM in test [2]. As for `O=C1CCCC(=O)C1=C(O)c1ccccc1Cl`, the IC50 in test [1] was 501 nM; in test [2] it was 500 nM. Consider `O=C1CCCC(=O)C1=C(O)c1ccccc1I`, for which the IC50 is 759 nM in test [1] and 760 nM in test [2]. For `O=C1CCCC(O)=C1C(=O)C1CCCCC1`, the IC50 in test [3] is 363000 nM; in test [4], 365000 nM. In the case of `CC(C)C(=O)C1=C(O)CCCC1=O`, the IC50 in test [3] and in test [4] was 93300 nM in each case. On to `O=C(Oc1cccc(O)c1)C1CC1`, for which the results for the IC50 in test [1] and in test [2] were 251 nM and 250 nM, respectively. Take `O=C1CCCC(OC(=O)C2CC2)=C1Cl`: the IC50 in test [1] and in test [2] was 20 nM in each case. Turning to `O=C1C=C(OC(=O)C2CC2)CC1`, the IC50 in test [1] is 70.8 nM; in test [2], 70 nM. As to `COc1ccccc1C(O)=C1C(=O)CCCC1=O`, the IC50 in test [1] and in test [2] was 11700 nM throughout.
